Results published in ChEMBL document CHEMBL3397036, “Novel tail and head group prostamide probes” (Bioorg Med Chem Lett, 2015).
Activity calls are given as the source filed them. The calls are words filed in the database; no cut-off is given here.

Columns and labels:
[1] = target: Prostaglandin E2 receptor EP4 subtype (Homo sapiens) (UniProt P35408); experiment: Activity at recombinant EP4 receptor (unknown origin) expressed in CHO cells co-expressing Gs protein at 100 nM by electrical cell substrate impedance sensing system; format: cell-based
Chain of Prostaglandin E2 receptor EP4 subtype (Homo sapiens) (P35408 whole entry): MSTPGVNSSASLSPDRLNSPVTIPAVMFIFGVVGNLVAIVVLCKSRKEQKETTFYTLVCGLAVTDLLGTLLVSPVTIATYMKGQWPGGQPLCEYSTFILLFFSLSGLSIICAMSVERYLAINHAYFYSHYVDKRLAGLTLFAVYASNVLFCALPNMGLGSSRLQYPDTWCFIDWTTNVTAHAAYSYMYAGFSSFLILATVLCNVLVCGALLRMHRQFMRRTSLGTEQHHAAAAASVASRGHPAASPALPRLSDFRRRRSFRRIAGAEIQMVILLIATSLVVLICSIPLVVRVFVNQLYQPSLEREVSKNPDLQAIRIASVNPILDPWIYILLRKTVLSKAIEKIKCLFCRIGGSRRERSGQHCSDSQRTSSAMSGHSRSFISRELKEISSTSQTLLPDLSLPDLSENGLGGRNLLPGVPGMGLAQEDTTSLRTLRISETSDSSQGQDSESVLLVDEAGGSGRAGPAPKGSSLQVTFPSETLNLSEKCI

[2] = target: T1, Prostaglandin E2 receptor EP1 subtype (Homo sapiens) (UniProt P34995); experiment: Activity at recombinant EP1 receptor (unknown origin) expressed in CHO cells co-expressing Gq protein at 100 nM by electrical cell substrate impedance sensing system; format: cell-based
T1 sequence (whole entry): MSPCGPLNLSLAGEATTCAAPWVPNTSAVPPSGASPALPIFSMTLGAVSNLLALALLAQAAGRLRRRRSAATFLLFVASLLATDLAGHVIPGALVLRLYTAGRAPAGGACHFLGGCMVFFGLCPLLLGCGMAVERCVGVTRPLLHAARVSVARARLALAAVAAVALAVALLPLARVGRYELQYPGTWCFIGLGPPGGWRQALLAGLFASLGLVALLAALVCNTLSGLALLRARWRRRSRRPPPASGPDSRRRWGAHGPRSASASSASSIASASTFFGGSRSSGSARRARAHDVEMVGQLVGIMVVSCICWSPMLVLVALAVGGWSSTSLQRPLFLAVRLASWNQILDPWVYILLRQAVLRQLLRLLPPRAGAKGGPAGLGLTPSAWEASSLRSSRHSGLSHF

[3] = target: T2, Prostaglandin E2 receptor EP3 subtype (Homo sapiens) (UniProt P43115); experiment: Activity at recombinant EP3 receptor (unknown origin) expressed in CHO cells co-expressing Gi protein at 100 nM by electrical cell substrate impedance sensing system; format: cell-based
T2 sequence (whole entry): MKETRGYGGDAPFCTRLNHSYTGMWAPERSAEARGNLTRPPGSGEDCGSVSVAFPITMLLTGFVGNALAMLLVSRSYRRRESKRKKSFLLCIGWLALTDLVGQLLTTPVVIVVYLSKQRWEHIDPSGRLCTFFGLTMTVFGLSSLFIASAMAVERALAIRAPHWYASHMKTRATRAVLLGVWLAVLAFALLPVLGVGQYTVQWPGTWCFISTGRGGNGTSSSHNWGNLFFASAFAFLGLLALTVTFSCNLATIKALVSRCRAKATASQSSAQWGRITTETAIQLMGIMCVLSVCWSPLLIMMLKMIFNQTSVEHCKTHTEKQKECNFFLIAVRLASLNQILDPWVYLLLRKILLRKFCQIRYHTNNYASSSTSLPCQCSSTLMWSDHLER

[4] = target: T3, N-acylethanolamine-hydrolyzing acid amidase (Homo sapiens, UniProt Q02083); experiment: Inhibition of human NAAA
T3 sequence (Q02083 whole entry): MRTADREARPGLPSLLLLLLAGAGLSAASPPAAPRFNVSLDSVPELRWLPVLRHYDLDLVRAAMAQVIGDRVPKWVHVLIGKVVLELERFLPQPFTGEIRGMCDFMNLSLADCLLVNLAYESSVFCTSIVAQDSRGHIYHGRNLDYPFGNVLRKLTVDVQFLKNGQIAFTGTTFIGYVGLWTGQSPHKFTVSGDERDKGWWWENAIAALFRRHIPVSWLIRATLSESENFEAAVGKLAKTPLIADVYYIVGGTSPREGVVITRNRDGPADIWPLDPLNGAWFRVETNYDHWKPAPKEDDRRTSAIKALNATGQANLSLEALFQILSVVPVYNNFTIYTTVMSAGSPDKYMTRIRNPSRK

[5] = target: T4, Fatty-acid amide hydrolase 1 (Rattus norvegicus, UniProt P97612); experiment: Inhibition of rat FAAH
T4 sequence (P97612 whole entry): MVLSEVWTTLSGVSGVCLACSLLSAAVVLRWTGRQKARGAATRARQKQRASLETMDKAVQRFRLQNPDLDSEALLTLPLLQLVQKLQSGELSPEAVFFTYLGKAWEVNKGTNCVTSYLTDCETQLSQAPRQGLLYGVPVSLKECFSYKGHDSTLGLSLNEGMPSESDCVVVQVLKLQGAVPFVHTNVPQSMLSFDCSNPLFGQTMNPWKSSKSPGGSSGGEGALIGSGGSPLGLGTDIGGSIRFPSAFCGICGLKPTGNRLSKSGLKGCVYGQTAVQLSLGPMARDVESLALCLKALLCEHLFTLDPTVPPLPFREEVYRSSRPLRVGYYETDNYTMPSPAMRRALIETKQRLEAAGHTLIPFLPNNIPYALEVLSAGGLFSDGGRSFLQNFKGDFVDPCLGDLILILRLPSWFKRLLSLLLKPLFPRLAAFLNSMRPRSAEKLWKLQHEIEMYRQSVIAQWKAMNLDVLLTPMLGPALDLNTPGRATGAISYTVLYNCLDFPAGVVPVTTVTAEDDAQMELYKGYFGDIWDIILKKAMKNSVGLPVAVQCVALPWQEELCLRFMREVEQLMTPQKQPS

Cannabinoid receptor 1 [6] = target: T5, Cannabinoid receptor 1 (Rattus norvegicus, UniProt P20272); experiment: Displacement of [3H]CP-55,940 from CB1 receptor in rat brain homogenates in absence of phenylmethanesulfonyl fluoride; format: tissue-based
T5 sequence (P20272 whole entry): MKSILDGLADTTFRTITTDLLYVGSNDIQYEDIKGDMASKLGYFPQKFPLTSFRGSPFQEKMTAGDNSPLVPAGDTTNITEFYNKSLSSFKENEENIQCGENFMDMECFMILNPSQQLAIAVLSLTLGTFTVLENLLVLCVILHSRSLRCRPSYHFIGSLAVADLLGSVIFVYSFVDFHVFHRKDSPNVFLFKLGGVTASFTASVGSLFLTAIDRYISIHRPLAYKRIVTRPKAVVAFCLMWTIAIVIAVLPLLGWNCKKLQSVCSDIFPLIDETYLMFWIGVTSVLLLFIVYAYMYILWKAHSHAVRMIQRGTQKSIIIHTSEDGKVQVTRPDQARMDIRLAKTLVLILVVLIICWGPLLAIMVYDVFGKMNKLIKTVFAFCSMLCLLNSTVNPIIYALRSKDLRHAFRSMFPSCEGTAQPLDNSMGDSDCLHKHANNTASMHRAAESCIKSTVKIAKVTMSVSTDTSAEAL

Cannabinoid receptor 2 [7] = target: Cannabinoid receptor 2 (Mus musculus, UniProt P47936); experiment: Displacement of [3H]CP-55,940 from mouse CB2 receptor expressed in HEK293 cells; format: cell-based
Chain of Cannabinoid receptor 2 (Mus musculus, UniProt P47936) (P47936 whole entry): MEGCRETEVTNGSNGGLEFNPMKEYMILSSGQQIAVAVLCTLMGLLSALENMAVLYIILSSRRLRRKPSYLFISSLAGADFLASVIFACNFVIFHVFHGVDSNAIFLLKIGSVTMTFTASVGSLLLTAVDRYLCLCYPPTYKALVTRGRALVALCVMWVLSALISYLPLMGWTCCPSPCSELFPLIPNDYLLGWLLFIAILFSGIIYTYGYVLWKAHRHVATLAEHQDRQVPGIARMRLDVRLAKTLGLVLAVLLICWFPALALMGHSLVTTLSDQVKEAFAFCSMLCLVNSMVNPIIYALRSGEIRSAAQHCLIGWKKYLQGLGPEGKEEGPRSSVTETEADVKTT

Cannabinoid receptor 1 [8] = target: T5, Cannabinoid receptor 1; experiment: Displacement of [3H]CP-55,940 from CB1 receptor in rat brain homogenates in presence of phenylmethanesulfonyl fluoride; format: tissue-based
Cannabinoid receptor 2 [9] = target: Cannabinoid receptor 2 (Homo sapiens, UniProt P34972); experiment: Displacement of [3H]CP-55,940 from human CB2 receptor expressed in HEK293 cells; format: cell-based
Chain of Cannabinoid receptor 2 (Homo sapiens, UniProt P34972) (P34972 whole entry): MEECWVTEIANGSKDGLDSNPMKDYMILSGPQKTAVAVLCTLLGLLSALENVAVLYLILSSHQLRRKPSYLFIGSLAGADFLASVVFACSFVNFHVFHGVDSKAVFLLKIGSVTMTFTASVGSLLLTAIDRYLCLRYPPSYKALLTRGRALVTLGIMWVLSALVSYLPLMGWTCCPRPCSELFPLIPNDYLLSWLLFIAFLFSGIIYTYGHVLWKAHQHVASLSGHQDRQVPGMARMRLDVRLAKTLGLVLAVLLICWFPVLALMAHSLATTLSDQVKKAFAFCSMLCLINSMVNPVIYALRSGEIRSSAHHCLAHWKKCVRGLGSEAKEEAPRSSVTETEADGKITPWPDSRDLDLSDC

[10] = target: T6, Fatty-acid amide hydrolase 1 (Homo sapiens, UniProt O00519); experiment: Inhibition of human FAAH
T6 sequence (O00519 whole entry): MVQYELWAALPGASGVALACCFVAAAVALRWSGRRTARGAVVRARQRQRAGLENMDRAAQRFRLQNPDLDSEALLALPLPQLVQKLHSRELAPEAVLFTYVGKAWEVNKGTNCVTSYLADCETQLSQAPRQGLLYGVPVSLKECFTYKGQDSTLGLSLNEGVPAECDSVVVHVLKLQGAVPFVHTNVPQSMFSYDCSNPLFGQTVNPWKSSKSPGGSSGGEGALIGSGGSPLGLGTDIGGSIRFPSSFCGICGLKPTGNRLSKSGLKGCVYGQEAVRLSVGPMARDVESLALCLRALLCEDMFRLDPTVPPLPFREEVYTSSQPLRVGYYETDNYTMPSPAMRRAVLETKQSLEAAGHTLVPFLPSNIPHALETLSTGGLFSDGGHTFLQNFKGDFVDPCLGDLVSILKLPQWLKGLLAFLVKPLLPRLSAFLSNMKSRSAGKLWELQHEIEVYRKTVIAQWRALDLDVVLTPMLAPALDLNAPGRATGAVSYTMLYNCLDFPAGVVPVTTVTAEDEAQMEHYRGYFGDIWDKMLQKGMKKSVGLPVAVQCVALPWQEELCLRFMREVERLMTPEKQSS

Monoglyceride lipase = target: T7, Monoglyceride lipase (Homo sapiens, UniProt Q99685); experiment: Inhibition of human MGL
T7 sequence (Q99685 whole entry): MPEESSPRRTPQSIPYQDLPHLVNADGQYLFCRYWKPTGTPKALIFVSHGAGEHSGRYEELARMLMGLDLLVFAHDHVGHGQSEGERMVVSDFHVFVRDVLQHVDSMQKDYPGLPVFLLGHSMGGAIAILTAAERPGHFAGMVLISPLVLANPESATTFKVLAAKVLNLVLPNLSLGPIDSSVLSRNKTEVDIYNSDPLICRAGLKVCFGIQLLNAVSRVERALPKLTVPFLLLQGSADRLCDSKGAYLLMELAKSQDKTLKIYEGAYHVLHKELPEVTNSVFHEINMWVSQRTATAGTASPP

| Activity [1] | Activity [2] | Activity [3] | IC50 [4] | IC50 [5] | Ki (Cannabinoid receptor 1 [6]) | Ki (Cannabinoid receptor 2 [7]) | Ki (Cannabinoid receptor 1 [8]) | Ki (Cannabinoid receptor 2 [9]) | IC50 [10] | IC50 (Monoglyceride lipase) | SMILES |
| --- | --- | --- | --- | --- | --- | --- | --- | --- | --- | --- | --- |
| inactive | inactive | inactive | – | – | – | – | – | – | – | – | CCCCC[C@H](O)/C=C/[C@H]1[C@H](O)CC(=O)[C@@H]1C/C=C\CCCC(=O)NCCO |
| – | – | – | > 100000 nM | > 100000 nM | 830 nM | > 1000 nM | 620 nM | > 1000 nM | > 100000 nM | > 100000 nM | O=C(CCC/C=C\C[C@H]1C(=O)C[C@@H](O)[C@@H]1/C=C/[C@@H](O)CCc1ccc(I)cc1)NCCO |
| Active | Active | Active | – | – | – | – | – | – | – | – | CCCCC[C@H](O)/C=C/[C@H]1[C@H](O)CC(=O)[C@@H]1C/C=C\CCCC(=O)O |
| inactive | inactive | inactive | > 100000 nM | > 100000 nM | > 1000 nM | > 1000 nM | > 1000 nM | > 1000 nM | > 100000 nM | 100000 nM | O=C(CCC/C=C\C[C@H]1C(=O)C[C@@H](O)[C@@H]1/C=C/[C@@H](O)CCc1ccccc1)NCCO |
| – | – | – | > 100000 nM | > 100000 nM | 740 nM | > 1000 nM | 740 nM | > 1000 nM | > 100000 nM | > 100000 nM | O=C(CCC/C=C\C[C@H]1C(=O)C[C@@H](O)[C@@H]1/C=C/[C@H](O)CCc1ccccc1)NCCO |
| – | – | – | > 100000 nM | > 100000 nM | > 1000 nM | > 1000 nM | > 1000 nM | > 1000 nM | > 100000 nM | > 100000 nM | O=C(CCC/C=C\C[C@H]1C(=O)C[C@@H](O)[C@@H]1/C=C/[C@@H](O)CCc1ccccc1)NCCCO |
| – | – | – | > 100000 nM | > 100000 nM | 770 nM | > 1000 nM | 730 nM | > 1000 nM | > 100000 nM | > 100000 nM | C[C@H](CO)NC(=O)CCC/C=C\C[C@H]1C(=O)C[C@@H](O)[C@@H]1/C=C/[C@@H](O)CCc1ccccc1 |
| – | – | – | > 100000 nM | > 100000 nM | > 1000 nM | > 1000 nM | 950 nM | > 1000 nM | > 100000 nM | > 100000 nM | C[C@@H](CO)NC(=O)CCC/C=C\C[C@H]1C(=O)C[C@@H](O)[C@@H]1/C=C/[C@@H](O)CCc1ccccc1 |
